Patent US20170050957A1, “4-AMINO-6-(HETEROCYCLIC)PICOLINATES AND 6-AMINO-2-(HETEROCYCLIC)PYRIMIDINE-4-CARBOXYLATES AND THEIR USE AS HERBICIDES” (Dow AgroSciences LLC, priority 2013, published 2017)
Where two headings read alike, the source gives them in different places.

Legend:
[1] = tested on: Key Broadleaf Weed and Crop Species; experiment: Post-emergent Test II herbicidal activity (Table 15); type: in vivo; conditions: post-emergence, 336 h, 14 d; for pest or weed control at 35 g/ha: 35 g ai/ha; for pest or weed control at 70 g/ha: 70 g ai/ha; for pest or weed control at 140 g/ha: 140 g ai/ha
Procedure, shortened: (§1)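 Visual injury rating (0 = none, 100% = complete kill) made 14 d after treatment, relative to untreated plants. Compounds in an acetone/DMSO/aqueous crop-oil/surfactant spray, at top rate and serial 1/2×-1/16× rates, were applied at 187 L/ha overhead to first-second true leaf plants raised 7-21 d in greenhouse.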

[2] = tested on: Key Grass and Sedge Weeds as well as Grass Crops; experiment: Post-emergent Test II herbicidal activity (Table 16); type: in vivo; conditions: post-emergence, 336 h, 14 days after application; for pest or weed control at 35 g/ha: 35 g ai/ha; for pest or weed control at 70 g/ha: 70 g ai/ha; for pest or weed control at 140 g/ha: 140 g ai/ha
Procedure, shortened: as §1

[3] = Abutilon theophrasti, velvetleaf (Abutilon theophrasti), read-out: Visual Growth Reduction (%) 14 Days After Application, ABUTH
[4] = Brassica napus, oilseed rape, canola (Brassica napus), read-out: Visual Growth Reduction (%) 14 Days After Application, BRSNN
[5] = Chenopodium album, lambsquarters (Chenopodium album), read-out: Visual Growth Reduction (%) 14 Days After Application, CHEAL
[6] = Euphorbia heterophylla, wild poinsettia (Euphorbia heterophylla), read-out: Visual Growth Reduction (%) 14 Days After Application, EPHHL
[7] = Helianthus annuus, sunflower (Helianthus annuus), read-out: Visual Growth Reduction (%) 14 Days After Application, HELAN
[8] = Cyperus esculentus, yellow nutsedge (Cyperus esculentus), read-out: Visual Growth Reduction (%) 14 Days After Application CYPES
[9] = Echinochloa crus-galli, barnyardgrass (Echinochloa crus-galli), read-out: Visual Growth Reduction (%) 14 Days After Application ECHCG
[10] = Oryza sativa, rice (Oryza sativa), read-out: Visual Growth Reduction (%) 14 Days After Application ORYSA
[11] = Setaria faberi, giant foxtail (Setaria faberi), read-out: Visual Growth Reduction (%) 14 Days After Application SETFA
[12] = Triticum aestivum, wheat, spring (Triticum aestivum), read-out: Visual Growth Reduction (%) 14 Days After Application TRZAS
[13] = Zea mays, maize, corn (Zea mays), read-out: Visual Growth Reduction (%) 14 Days After Application ZEAMX
[14] = Amaranthus retroflexus, redroot pigweed (Amaranthus retroflexus), read-out: Visual Growth Reduction (%) 14 Days After Application, AMARE

COC(=O)c1nc(-c2cccc3cn[nH]c23)c(F)c(N)c1Cl [Compound 4.13]
pest or weed control at 35 g/ha [1, 3]: 0 to 29% | pest or weed control at 70 g/ha [1, 3]: 0 to 29% | pest or weed control at 140 g/ha [1, 3]: 0 to 29% | pest or weed control at 35 g/ha [1, 4]: 0 to 29% | pest or weed control at 70 g/ha [1, 4]: 0 to 29% | pest or weed control at 140 g/ha [1, 4]: 0 to 29% | pest or weed control at 35 g/ha [1, 5]: 0 to 29% | pest or weed control at 70 g/ha [1, 5]: 0 to 29% | pest or weed control at 140 g/ha [1, 5]: 60 to 74% | pest or weed control at 35 g/ha [1, 6]: 0 to 29% | pest or weed control at 70 g/ha [1, 6]: 0 to 29% | pest or weed control at 140 g/ha [1, 6]: 0 to 29% | pest or weed control at 35 g/ha [1, 7]: 0 to 29% | pest or weed control at 70 g/ha [1, 7]: 0 to 29% | pest or weed control at 140 g/ha [1, 7]: 0 to 29% | pest or weed control at 35 g/ha [2, 8]: 0 to 29% | pest or weed control at 70 g/ha [2, 8]: 0 to 29% | pest or weed control at 140 g/ha [2, 8]: 0 to 29% | pest or weed control at 35 g/ha [2, 9]: 0 to 29% | pest or weed control at 70 g/ha [2, 9]: 0 to 29% | pest or weed control at 140 g/ha [2, 9]: 0 to 29% | pest or weed control at 35 g/ha [2, 10]: 0 to 29% | pest or weed control at 70 g/ha [2, 10]: 0 to 29% | pest or weed control at 140 g/ha [2, 10]: 0 to 29% | pest or weed control at 35 g/ha [2, 11]: 0 to 29% | pest or weed control at 70 g/ha [2, 11]: 0 to 29% | pest or weed control at 140 g/ha [2, 11]: 0 to 29% | pest or weed control at 35 g/ha [2, 12]: 0 to 29% | pest or weed control at 70 g/ha [2, 12]: 0 to 29% | pest or weed control at 140 g/ha [2, 12]: 0 to 29% | pest or weed control at 35 g/ha [2, 13]: 0 to 29% | pest or weed control at 70 g/ha [2, 13]: 0 to 29% | pest or weed control at 140 g/ha [2, 13]: 0 to 29% | melting point: 207 to 210 °C

COC(=O)c1nc(-c2ccc3scnc3c2)c(F)c(N)c1Cl [Compound 6.01, Methyl 4-amino-6-(benzo[d]thiazol-5-yl)-3-chloro-5-fluoropicolinate]
pest or weed control at 35 g/ha [1, 3]: 85 to 94% | pest or weed control at 70 g/ha [1, 3]: 85 to 94% | pest or weed control at 140 g/ha [1, 3]: 85 to 94% | pest or weed control at 35 g/ha [1, 14]: 85 to 94% | pest or weed control at 70 g/ha [1, 14]: 95 to 100% | pest or weed control at 140 g/ha [1, 14]: 95 to 100% | pest or weed control at 35 g/ha [1, 4]: 95 to 100% | pest or weed control at 70 g/ha [1, 4]: 95 to 100% | pest or weed control at 140 g/ha [1, 4]: 95 to 100% | pest or weed control at 35 g/ha [1, 5]: 95 to 100% | pest or weed control at 70 g/ha [1, 5]: 95 to 100% | pest or weed control at 140 g/ha [1, 5]: 95 to 100% | pest or weed control at 35 g/ha [1, 6]: 0 to 29% | pest or weed control at 70 g/ha [1, 6]: 85 to 94% | pest or weed control at 140 g/ha [1, 6]: 95 to 100% | pest or weed control at 35 g/ha [1, 7]: 85 to 94% | pest or weed control at 70 g/ha [1, 7]: 85 to 94% | pest or weed control at 140 g/ha [1, 7]: 85 to 94% | pest or weed control at 35 g/ha [2, 8]: 45 to 59% | pest or weed control at 70 g/ha [2, 8]: 45 to 59% | pest or weed control at 140 g/ha [2, 8]: 45 to 59% | pest or weed control at 35 g/ha [2, 9]: 0 to 29% | pest or weed control at 70 g/ha [2, 9]: 45 to 59% | pest or weed control at 140 g/ha [2, 9]: 60 to 74% | pest or weed control at 35 g/ha [2, 10]: 0 to 29% | pest or weed control at 70 g/ha [2, 10]: 0 to 29% | pest or weed control at 140 g/ha [2, 10]: 0 to 29% | pest or weed control at 35 g/ha [2, 11]: 0 to 29% | pest or weed control at 70 g/ha [2, 11]: 0 to 29% | pest or weed control at 140 g/ha [2, 11]: 0 to 29% | pest or weed control at 35 g/ha [2, 12]: 0 to 29% | pest or weed control at 70 g/ha [2, 12]: 0 to 29% | pest or weed control at 140 g/ha [2, 12]: 0 to 29% | pest or weed control at 35 g/ha [2, 13]: 0 to 29% | pest or weed control at 70 g/ha [2, 13]: 0 to 29% | pest or weed control at 140 g/ha [2, 13]: 0 to 29% | melting point: 216 °C
